Among the test systems are BT-549 breast; HS 578T breast; T-47D breast; NCI/ADR-RES ovarian; MDA-N; M19-MEL melanoma; MCF7 breast; MDA-MB-231 breast; XF 498 CNS; RXF-631 renal.
Holding throughout (assay): NCI-60 cell line screen, 48 h

The values that follow come from PubChem BioAssay (NCI).

SMILES strings stand for the structures. Values after ≈ are worked out from the molar mass of the structure shown. Values joined by “and” are separate entries in the source; they are usually repeats but may differ in a detail not shown here. Equal values may be shown once.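 Dose response: 5 concentrations. Exposure: 48 h. Format: 96-well plates. Endpoint: linear interpolation; highest concentration if not reached. Here, GI50 denotes the concentration required for 50% inhibition of growth. TGI: concentration producing complete growth inhibition.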 Where a SMILES comes first, the peptide text is derived from it. [ ]: non-standard residue; d: D form. The star is where a group is joined. ξ: configuration not given here. NMeN = CN[C@@H](CC(N)=O)C(=O)O; NMeV = CN[C@H](C(=O)O)C(C)C; ξNMeV = CNC(C(=O)O)C(C)C; Boc = CC(C)(C)OC(=O)*; ξNMeA = CNC(C)C(=O)O Some results are limits rather than exact numbers.

For the molecule `C=C1C(=O)[C@@]23CC1C(O)[C@@H](OC(C)=O)[C@@H]2C1(C)C(OC(C)=O)C[C@@H](OC(C)=O)C(C)(C)[C@@H]1C[C@H]3OC(C)=O` (stereo not given in full), the GI50 in the experiment with BT-549 breast is 1.87 µg/mL; in the experiment with HS 578T breast, 2 µg/mL; in the experiment on T-47D breast it was 2.14 µg/mL; in the experiment on NCI/ADR-RES ovarian, 16.9 µg/mL; with MDA-N, 2.28 µg/mL; in the experiment on M19-MEL melanoma it was 2.23 µg/mL. In addition, the GI50 with MCF7 breast is 6.33 µg/mL; in the experiment with MDA-MB-231 breast it was 2.38 µg/mL (≈ 4.44 µM). The TGI was 3.04 µM and 3.31 µg/mL with BT-549 breast; > 10 µM and 5.83 µg/mL in the experiment with HS 578T breast; 4.55 µM and 4.57 µg/mL in the experiment with T-47D breast; > 10 µM and 37.2 µg/mL with NCI/ADR-RES ovarian; > 10 µM and 5.3 µg/mL in the experiment on MDA-N; 4.85 µg/mL with M19-MEL melanoma. Further, the TGI with MCF7 breast was 6.7 µM and 19.1 µg/mL; in the experiment with MDA-MB-231 breast it was 7.49 µg/mL.
Consider `O=C1c2ccccc2C2(O)NC(=S)N(c3ccccc3)C12O` (stereo not given), for which the TGI in the experiment on XF 498 CNS and with M19-MEL melanoma was greater than 100 µM throughout.
Regarding `Cc1ccc(NC(=O)CC(=O)n2nc(-c3ccccc3)c(N=Nc3ccccc3Cl)c2-c2ccccc2)cc1`, the TGI with XF 498 CNS, in the experiment on M19-MEL melanoma and with RXF-631 renal was greater than 100 µM each time. For the same molecule, the GI50 in the experiment with M19-MEL melanoma was greater than 100 µM.
Consider `CCn1c(O)c(C=N)c(=O)n(CC)c1=O`, for which the TGI in the experiment with M19-MEL melanoma and with RXF-631 renal was greater than 100 µM throughout.
In the case of `COC(=O)C(C)N(C)C(=O)[C@H](CC(N)=O)N(C)C(=O)[C@@H]1CCCN1C(=O)[C@H](C(C)C)N(C)C(=O)C(C(C)C)N(C)C(=O)[C@@H](NC(=O)OC(C)(C)C)C(C)C` (stereo not given in full) (Boc-V[ξNMeV][NMeV]P[NMeN][ξNMeA]-OMe), the TGI was greater than 50 µM in the experiment with BT-549 breast; greater than 100 µM in the experiment on XF 498 CNS; greater than 50 µM with T-47D breast; greater than 50 µM in the experiment with NCI/ADR-RES ovarian; greater than 50 µM in the experiment on MDA-N; greater than 100 µM in the experiment with M19-MEL melanoma. In addition, the TGI in the experiment on MCF7 breast and in the experiment with MDA-MB-231 breast was greater than 50 µM in each case.
For `COc1cc2cc(C(=O)Nc3cc(N)c4ccccc4c3CCCl)[nH]c2c(OC)c1OC`, the GI50 in the experiment with BT-549 breast is 0.121 µM; in the experiment on HS 578T breast, 0.0899 µM; in the experiment on T-47D breast, 0.0372 µM; in the experiment on NCI/ADR-RES ovarian it was 0.0329 µM; with MDA-N, 0.0568 µM; in the experiment on MCF7 breast it was 0.00869 µM. For the same molecule, the TGI in the experiment on BT-549 breast is 0.804 µM; in the experiment on HS 578T breast, greater than 50 µM; in the experiment on T-47D breast it was 0.237 µM; with NCI/ADR-RES ovarian, 1.91 µM; in the experiment on MDA-N, 0.219 µM; with MCF7 breast it was 0.374 µM.
`CCc1nc(N)nc(C(=O)NCCNC(=O)c2nc(N)nc(CC)c2C)c1C`: the TGI with XF 498 CNS, in the experiment with M19-MEL melanoma and in the experiment on RXF-631 renal was greater than 100 µM each time.
In the case of `CN1CCCCCC(=N\O)/C(=N/O)CCCCC1`, the TGI in the experiment with BT-549 breast, in the experiment on HS 578T breast, in the experiment on NCI/ADR-RES ovarian, in the experiment with MDA-N, with MCF7 breast and with MDA-MB-231 breast was greater than 100 µM in each case.
`C1CCN(C2OC3C(COC3N3CCCCC3)OC2OC2CCO[C@@H]2N2CCCCC2)CC1` (stereo not given in full) registered a TGI in the experiment with XF 498 CNS of 37.3 µM.
Consider `c1ccc2c(c1)-c1ccccc1C2N1CC2CCC(CC2)C1`, for which the TGI in the experiment on BT-549 breast was 47.9 µM; in the experiment with HS 578T breast, 33.2 µM; in the experiment on T-47D breast it was 43.3 µM; with NCI/ADR-RES ovarian, 39.5 µM; with MDA-N, greater than 100 µM; in the experiment on MCF7 breast, 32.7 µM. The molecule further had a TGI in the experiment on MDA-MB-231 breast of 37.4 µM.
For the molecule `Cc1cccc(Cl)c1NC(=O)/C=C/c1ccccc1`, the TGI in the experiment with BT-549 breast, with HS 578T breast, in the experiment on T-47D breast, in the experiment on MDA-N, with MCF7 breast and in the experiment on MDA-MB-231 breast was greater than 100 µM in each case.
With `CC(=O)Nc1c(C)ccc2c1C(=O)c1ccccc1C2=O`, the TGI with M19-MEL melanoma is greater than 100 µM.
`Cc1nc2cc(N)c(F)cc2[nH]1`: the TGI with XF 498 CNS and in the experiment on M19-MEL melanoma was greater than 100 µM in each case.
As to `Nc1ncn(C2C=C(CO)C(O)C2O)c(=O)n1` (stereo not given), the TGI in the experiment on M19-MEL melanoma and in the experiment with RXF-631 renal was greater than 100 µM each time.
In the case of `Cc1cccc(C)c1NC(=O)CCc1nnc2s/c(=C\c3ccc(Cl)cc3)c(=O)n12`, the TGI in the experiment with XF 498 CNS and with M19-MEL melanoma was greater than 100 µM throughout.
Turning to `O=[N+]([O-])c1ccc(N=Nc2c(O)ccc3ccccc23)cc1`, the GI50 was 30.3 µM and > 100 µM in the experiment with BT-549 breast; 18.3 µM and > 100 µM in the experiment on HS 578T breast. Also, the TGI is 96.1 µM and > 100 µM with BT-549 breast; 46.6 µM and > 100 µM in the experiment with HS 578T breast; greater than 100 µM with T-47D breast; greater than 100 µM with MDA-N; greater than 100 µM with MCF7 breast; greater than 100 µM in the experiment with MDA-MB-231 breast.
Consider `O=C1c2cc([N+](=O)[O-])ccc2-c2cccc(F)c21`, for which the TGI is greater than 100 µM with BT-549 breast; greater than 100 µM with HS 578T breast; 66.1 µM in the experiment on T-47D breast; greater than 100 µM in the experiment with NCI/ADR-RES ovarian; greater than 100 µM with MDA-N; greater than 100 µM with MCF7 breast. Also, the TGI with MDA-MB-231 breast was greater than 100 µM.
For the molecule `COC1OC(C)C(O)CC1OS(=O)(=O)c1ccc(C)cc1` (stereo not given), the TGI in the experiment with M19-MEL melanoma is greater than 100 µM.
Consider `C=CCC(C(=O)O)c1ccccc1` (stereo not given), for which the TGI with BT-549 breast, in the experiment with HS 578T breast, in the experiment with T-47D breast, with NCI/ADR-RES ovarian, in the experiment with MDA-N and in the experiment on MCF7 breast was greater than 100 µM in each case. The molecule further registered a TGI in the experiment on MDA-MB-231 breast greater than 100 µM.
Take `O=C1NC2CCC(C2)C1c1ccccc1` (stereo not given): the TGI in the experiment with M19-MEL melanoma and with RXF-631 renal was greater than 100 µM each time.
On to `CC(=O)N/C(=C\c1cccc([N+](=O)[O-])c1)c1nc2c3c(ccc2[nH]1)C(=O)c1ccccc1C3=O`, for which the TGI in the experiment on XF 498 CNS, with M19-MEL melanoma and in the experiment on RXF-631 renal was greater than 100 µM each time.
With `NC(=S)N/N=C(\C(=O)Nc1cccc([N+](=O)[O-])c1)c1nc2ccc([N+](=O)[O-])cc2[nH]c1=O`, the TGI in the experiment on XF 498 CNS, in the experiment on M19-MEL melanoma and in the experiment with RXF-631 renal was greater than 100 µM each time.
